Experimental data as given in article PMC10689823, “Discovery of a Drug-like, Natural Product-Inspired DCAF11 Ligand Chemotype” (Nature Communications, 2023).

How the values were obtained:
BRD4(S)-BFP = target: T1, BRD4(S)-BFP (Homo sapiens, UniProt O60885); test: Flow cytometry-based BRD4 reporter assay (DCAF11 knockout/rescue); format: cell-based; settings: 6 h, 10 at 5 µM, 9 at 1 µM, dBET6 at 0.5 µM, DMSO = 1
T1 construct: BRD4 short isoform (amino acids 1-719; Twist Bioscience); V5; P2A-mCherry (mCherry split off by P2A self-cleavage) (C, cleaved yes); expressed in transfected cells; host or cells: KBM7 iCas9 cells, lentiviral SFFV-BRD4(S)-mTagBFP-P2A-mCherry
Procedure: Stable BRD4(S)-BFP reporter KBM7 iCas9 cell line was generated as previously described. […] Cells were subsequently washed, resuspended in FACS buffer and analyzed on LSRFortessa (BD Biosciences). Flow cytometry data was analyzed in FlowJo (v10.8.1). BFP and mCherry mean fluorescence intensity (MFI) values for were normalized by background subtraction of the respective values from reporter negative KBM7 wild type cells.

BRD4 = target: T2, BRD4 (Homo sapiens, UniProt O60885); test: BRD4 levels by Western blot in Jurkat cells; format: cell-based; settings: for degradation of BRD4: 3 µM, 6 h treatment
T2 construct: endogenous in cells; host or cells: Jurkat
Procedure: Cells were washed with PBS and lysed in lysis buffer (50 mM Tris-HCl, pH 7.4, 150 mM NaCl, 1% Triton X-100, 1% sodium deoxycholate, 0.1% SDS) with complete protease inhibitor cocktail (Roche, 11836170001) for 30 min on ice. For Ramos cells, cell pellets were lysed in lysis buffer (50 mM Tris-HCl, pH 8, 150 mM NaCl, 1% NP-40, 0.5% sodium deoxycholate) with complete protease inhibitor cocktail. After centrifugation at 16,000 x g, the supernatant was transferred into a new tube and the protein concentration was determined by DC protein assay (BIO-RAD, 5000116). Proteins were separated by SDS-PAGE and transferred to a PVDF membrane (Thermo scientific, 0.45 μm, 88518). For PDEδ, BRD2, GAPDH, BRD4, Vinculin and BTK, the membranes were blocked with Intercept® Blocking Buffer (LI-COR Biosciences, 927-70001) at room temperature for 1 h. The primary antibodies for these proteins were diluted with Intercept® Blocking Buffer (1:500 for PDEδ, 1:3000 for Vinculin, and 1:1000 for other proteins) and incubated with the membranes overnight at 4 °C. Membranes were washed with PBS + 0.1% Tween 20 (PBS-T) five times and incubated with secondary antibodies conjugated to IRDye® Infrared Fluorescent Dyes (1:5000, LI-COR Biosciences) at room temperature for 1 h with protection from light. After washing the membrane, signals were visualized using the ChemiDoc MP Imaging System (BIO-RAD Laboratories). For detection of LC3B, BRD3, BLK, DCAF11, DDB1 RBX1, FIP200, V5- and FLAG-Tag the membranes were blocked with 5% milk in PBS-T at room temperature for 1 h. The primary antibodies for these proteins were diluted in 5% milk in PBS-T buffer (1:200 for BRD3, 1:1000 for other proteins) and incubated with the membranes overnight at 4 °C. Membranes were washed with PBS-T five times and incubated with HRP secondary antibodies (1:1500) at room temperature for 1 h. After washing the membrane, protein detection was performed using Western blotting detection reagent (Thermo Scientific, 34095) and the ChemiDoc MP Imaging System (BIO-RAD). Relative band intensities were quantified using Image Lab (BIO-RAD).

[1] = KBM7 iCas9 BRD4(S)-BFP reporter cells, WT
[2] = reporter cells, DCAF11 KO + WT cDNA

| norm BRD4 abundance (BRD4(S)-BFP; [1]) | norm BRD4 abundance (BRD4(S)-BFP; [2]) | norm BRD4 abundance (BRD4(S)-BFP; reporter cells, DCAF11 KO) | degradation of BRD4 (BRD4) | hook effect for BRD4 (BRD4; 6 h, up to 50 µM concentration) | SMILES |
| --- | --- | --- | --- | --- | --- |
| 0.4125 | 0.4289 | 0.7503 | potent degradation activity | almost no hook effect | Cc1sc2c(c1C)C(c1ccc(Cl)cc1)=N[C@@H](CC(=O)NCCOCCOCCOCCOCCNC(=O)COc1c(Br)cc(/C=C3\C(=O)Nc4ccc(Br)cc43)cc1Br)c1nnc(C)n1-2 [Compound 9] |
| 0.5147 | 0.5732 | 0.8082 | potent degradation activity |  | Cc1sc2c(c1C)C(c1ccc(Cl)cc1)=NC(CC(=O)NCCOCCOCCOCCOc1c(Br)cc(C=C3C(=O)Nc4ccc(Br)cc43)cc1Br)c1nnc(C)n1-2 (stereo not drawn) [Compound 10] |
